Molecules are shown by their SMILES. The source made the active and inactive calls.

The nature of assay [1]: cells. It counts as functional, cell-based.
Assay [2] is described as follows: cells. It counts as functional, cell-based. This is another data set of the same source.
Another assay addresses T1, Caspase-6 (Homo sapiens, UniProt P55212).
T1 sequence (P55212 whole entry): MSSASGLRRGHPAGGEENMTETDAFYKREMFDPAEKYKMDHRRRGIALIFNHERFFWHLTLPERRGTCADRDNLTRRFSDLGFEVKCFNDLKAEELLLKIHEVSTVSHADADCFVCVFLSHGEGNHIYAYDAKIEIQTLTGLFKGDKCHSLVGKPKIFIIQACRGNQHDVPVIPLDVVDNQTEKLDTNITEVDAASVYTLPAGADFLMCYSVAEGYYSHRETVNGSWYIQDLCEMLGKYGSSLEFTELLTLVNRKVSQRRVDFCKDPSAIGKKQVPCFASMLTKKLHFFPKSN
In words: human caspase-6 inhibitors, dose response, biochemical, VEID-R110 fluorescence, cherry-pick (AID 720632).

The next assay concerns the target Genome polyprotein (dengue virus type 2, UniProt P29990). In words: Dengue-2 NS5 methyltransferase inhibitors, primary screen, biochemical, confirmation dose response (AID 588689). The class given is functional.
Assay [3] addresses T2, Mannose-6-phosphate isomerase (Homo sapiens, UniProt P34949).
T2 sequence (P34949 whole entry): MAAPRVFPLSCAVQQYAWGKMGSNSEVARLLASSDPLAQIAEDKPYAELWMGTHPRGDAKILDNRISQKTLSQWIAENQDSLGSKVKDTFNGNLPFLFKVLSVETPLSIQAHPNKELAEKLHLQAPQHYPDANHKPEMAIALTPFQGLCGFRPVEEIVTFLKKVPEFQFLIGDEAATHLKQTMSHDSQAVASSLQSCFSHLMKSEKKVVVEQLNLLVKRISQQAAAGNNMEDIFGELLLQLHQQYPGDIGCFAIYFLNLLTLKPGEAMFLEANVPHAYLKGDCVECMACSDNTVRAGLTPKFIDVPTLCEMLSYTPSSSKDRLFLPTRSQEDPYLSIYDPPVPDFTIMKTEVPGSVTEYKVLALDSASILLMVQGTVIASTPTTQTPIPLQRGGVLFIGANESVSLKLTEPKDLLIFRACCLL
In words: human PMI inhibitors, high substrate, primary screen, biochemical, fluorescence intensity, high mannose 6-phosphate (AID 1220).

The nature of assay [4]: cells. The class given is functional, cell-based. This is another data set of the same source.
A short description of assay [5]: cells. The class given is functional, cell-based. This is another data set of the same source.
The target of assay [6] is T3, Apoptotic protease-activating factor 1 (Homo sapiens, UniProt O14727).
T3 sequence (O14727 whole entry): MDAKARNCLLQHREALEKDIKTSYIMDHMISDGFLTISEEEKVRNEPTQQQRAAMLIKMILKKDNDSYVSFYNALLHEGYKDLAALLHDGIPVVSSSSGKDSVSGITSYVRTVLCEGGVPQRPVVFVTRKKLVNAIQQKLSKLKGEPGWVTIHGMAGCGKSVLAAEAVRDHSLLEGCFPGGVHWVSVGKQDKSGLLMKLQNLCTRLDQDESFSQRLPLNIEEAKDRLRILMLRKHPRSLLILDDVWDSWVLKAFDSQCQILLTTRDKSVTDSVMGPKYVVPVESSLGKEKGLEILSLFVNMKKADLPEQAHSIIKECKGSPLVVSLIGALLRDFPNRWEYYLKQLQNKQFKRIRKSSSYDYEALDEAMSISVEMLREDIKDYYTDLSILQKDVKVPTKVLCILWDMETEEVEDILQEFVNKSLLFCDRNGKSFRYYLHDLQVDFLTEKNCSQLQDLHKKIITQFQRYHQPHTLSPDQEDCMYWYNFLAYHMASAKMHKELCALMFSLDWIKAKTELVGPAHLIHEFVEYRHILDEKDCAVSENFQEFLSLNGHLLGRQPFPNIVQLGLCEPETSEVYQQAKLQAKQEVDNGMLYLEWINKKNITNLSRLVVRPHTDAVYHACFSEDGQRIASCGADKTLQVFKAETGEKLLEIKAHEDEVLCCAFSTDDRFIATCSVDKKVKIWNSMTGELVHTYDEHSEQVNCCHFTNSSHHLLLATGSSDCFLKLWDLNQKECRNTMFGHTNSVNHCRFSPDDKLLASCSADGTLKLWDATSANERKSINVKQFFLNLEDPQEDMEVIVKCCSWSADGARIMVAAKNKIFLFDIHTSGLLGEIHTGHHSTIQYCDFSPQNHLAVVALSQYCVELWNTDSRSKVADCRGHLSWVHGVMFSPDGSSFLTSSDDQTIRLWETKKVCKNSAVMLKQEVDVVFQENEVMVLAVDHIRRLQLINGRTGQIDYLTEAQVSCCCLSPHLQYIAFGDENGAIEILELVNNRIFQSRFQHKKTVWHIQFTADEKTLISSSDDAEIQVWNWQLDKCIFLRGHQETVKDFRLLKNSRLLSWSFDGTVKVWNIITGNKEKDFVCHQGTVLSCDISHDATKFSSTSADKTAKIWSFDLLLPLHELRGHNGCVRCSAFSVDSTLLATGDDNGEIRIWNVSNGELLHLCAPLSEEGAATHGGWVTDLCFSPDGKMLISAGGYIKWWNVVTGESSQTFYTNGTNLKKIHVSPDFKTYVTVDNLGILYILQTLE
It counts as functional.

In assay [7] the target is T4, Zinc finger protein mex-5 (Caenorhabditis elegans, UniProt Q9XUB2).
T4 sequence (Q9XUB2 whole entry): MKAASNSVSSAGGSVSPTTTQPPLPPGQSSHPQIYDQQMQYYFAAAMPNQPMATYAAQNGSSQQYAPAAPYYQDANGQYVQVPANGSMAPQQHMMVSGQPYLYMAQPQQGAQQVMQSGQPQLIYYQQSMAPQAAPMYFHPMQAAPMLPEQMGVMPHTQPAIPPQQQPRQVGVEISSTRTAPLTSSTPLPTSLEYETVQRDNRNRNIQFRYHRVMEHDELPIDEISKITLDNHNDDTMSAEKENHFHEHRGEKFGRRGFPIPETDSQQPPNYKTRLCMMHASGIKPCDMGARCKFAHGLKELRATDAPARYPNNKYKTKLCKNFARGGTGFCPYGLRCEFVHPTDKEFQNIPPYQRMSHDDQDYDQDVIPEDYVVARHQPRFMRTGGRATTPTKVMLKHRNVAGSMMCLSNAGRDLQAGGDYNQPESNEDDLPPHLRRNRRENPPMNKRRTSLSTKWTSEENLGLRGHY
In words: MEX-5/TCR-2 RNA interaction inhibitors, dose response, biochemical, C. elegans, fluorescence polarization (AID 1960). For orientation: Polarisation of emitted light reports the rotation of a fluorescent probe.

Assay [8] deals with T5, RNA-binding protein pos-1 (Caenorhabditis elegans, UniProt G5EF15).
T5 sequence (G5EF15 whole entry): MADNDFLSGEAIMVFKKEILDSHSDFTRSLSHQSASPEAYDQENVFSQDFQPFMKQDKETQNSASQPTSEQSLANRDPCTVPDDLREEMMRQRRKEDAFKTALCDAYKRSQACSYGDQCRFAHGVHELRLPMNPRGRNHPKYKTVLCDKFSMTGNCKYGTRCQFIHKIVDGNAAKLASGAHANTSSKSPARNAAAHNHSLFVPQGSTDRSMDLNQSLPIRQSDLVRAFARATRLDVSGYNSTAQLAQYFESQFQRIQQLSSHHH
In words: inhibitors of POS-1/mex-3 RNA binding, dose response, biochemical, fluorescence polarization (AID 1964).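 Note: purified POS-1 fused to maltose binding protein made in E. coli; potency of compounds blocking POS-1 binding to fluorescent RNA.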

Assay [9] concerns the target Peroxisome proliferator-activated receptor gamma/Nuclear receptor coactivator 1 (Homo sapiens, UniProt P37231). In words: TR-FRET dose response biochemical High Throughput Screening assay for agonists of the steroid receptor coactivator 1 (SRC-1) recruitment by the peroxisome proliferator-activated receptor gamma (PPAR gamma): non-selective agonists. [Related pubchem assays (depositor defined):AID1300, AID1808, AID504735, AID631]. The class given is protein assay. For orientation: Time-resolved FRET reads energy transfer from a long-lived donor to a nearby acceptor.

Assay [10] has as its target Peroxisome proliferator-activated receptor gamma/Nuclear receptor coactivator 3 (Homo sapiens, UniProt P37231). In words: TR-FRET dose response biochemical High Throughput Screening assay for agonists of the steroid receptor coactivator 3 (SRC-3) recruitment by the peroxisome proliferator-activated receptor gamma (PPAR gamma): non-selective agonists. [Related pubchem assays: 1301 (Confirmation screen.), 1048 (Primary screen.)]. The class given is functional.

Assay [11] has as its target Peroxisome proliferator-activated receptor gamma/Nuclear receptor coactivator 2 (Homo sapiens, UniProt P37231). In words: TR-FRET dose response biochemical High Throughput Screening assay for agonists of the steroid receptor coactivator 2 (SRC-2) recruitment by the peroxisome proliferator-activated receptor gamma (PPAR gamma): non-selective agonists. [Related pubchem assays: 1297, 1032 ]. The class given is functional.

Assay [12] has as its target T6, Carboxy-terminal domain RNA polymerase II polypeptide A small phosphatase 1 (Homo sapiens, UniProt Q9GZU7).
T6 sequence (Q9GZU7 whole entry): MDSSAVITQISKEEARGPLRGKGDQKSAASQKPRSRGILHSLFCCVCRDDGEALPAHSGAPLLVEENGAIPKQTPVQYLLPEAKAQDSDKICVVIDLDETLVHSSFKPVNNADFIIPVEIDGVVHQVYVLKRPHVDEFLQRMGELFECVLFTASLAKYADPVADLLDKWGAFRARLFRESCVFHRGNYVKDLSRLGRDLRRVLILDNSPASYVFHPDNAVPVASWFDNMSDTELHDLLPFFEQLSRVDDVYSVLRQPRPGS
In words: inhibitors of CTDSP1, concentration-response testing, biochemical assay, absorbance-based, actives from ultra-high-throughput screening (AID 540297). The class given is functional.

The target in another assay is Large T antigen (Simian virus 40, UniProt P03070). It counts as functional, Betapolyomavirus macacae.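 Note: Confirmatory-stage PubChem screen for compounds that inhibit SV40 T antigen.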

Sequence of Peroxisome proliferator-activated receptor gamma/Nuclear receptor coactivator 1 (P37231 whole entry): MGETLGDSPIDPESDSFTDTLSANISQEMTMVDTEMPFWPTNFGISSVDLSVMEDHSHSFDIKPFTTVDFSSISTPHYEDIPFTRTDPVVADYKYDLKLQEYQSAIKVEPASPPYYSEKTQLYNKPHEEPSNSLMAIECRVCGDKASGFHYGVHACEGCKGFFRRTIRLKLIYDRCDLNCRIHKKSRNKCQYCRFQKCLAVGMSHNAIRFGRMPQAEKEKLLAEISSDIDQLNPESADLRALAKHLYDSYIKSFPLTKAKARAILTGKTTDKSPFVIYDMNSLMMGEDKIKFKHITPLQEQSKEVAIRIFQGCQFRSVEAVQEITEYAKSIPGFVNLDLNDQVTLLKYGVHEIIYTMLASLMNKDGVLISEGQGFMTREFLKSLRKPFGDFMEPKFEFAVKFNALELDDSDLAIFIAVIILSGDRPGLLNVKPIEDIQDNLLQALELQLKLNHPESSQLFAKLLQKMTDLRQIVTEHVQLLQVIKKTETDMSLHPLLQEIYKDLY
Sequence of Peroxisome proliferator-activated receptor gamma/Nuclear receptor coactivator 1 (Q15788 whole entry, further chain): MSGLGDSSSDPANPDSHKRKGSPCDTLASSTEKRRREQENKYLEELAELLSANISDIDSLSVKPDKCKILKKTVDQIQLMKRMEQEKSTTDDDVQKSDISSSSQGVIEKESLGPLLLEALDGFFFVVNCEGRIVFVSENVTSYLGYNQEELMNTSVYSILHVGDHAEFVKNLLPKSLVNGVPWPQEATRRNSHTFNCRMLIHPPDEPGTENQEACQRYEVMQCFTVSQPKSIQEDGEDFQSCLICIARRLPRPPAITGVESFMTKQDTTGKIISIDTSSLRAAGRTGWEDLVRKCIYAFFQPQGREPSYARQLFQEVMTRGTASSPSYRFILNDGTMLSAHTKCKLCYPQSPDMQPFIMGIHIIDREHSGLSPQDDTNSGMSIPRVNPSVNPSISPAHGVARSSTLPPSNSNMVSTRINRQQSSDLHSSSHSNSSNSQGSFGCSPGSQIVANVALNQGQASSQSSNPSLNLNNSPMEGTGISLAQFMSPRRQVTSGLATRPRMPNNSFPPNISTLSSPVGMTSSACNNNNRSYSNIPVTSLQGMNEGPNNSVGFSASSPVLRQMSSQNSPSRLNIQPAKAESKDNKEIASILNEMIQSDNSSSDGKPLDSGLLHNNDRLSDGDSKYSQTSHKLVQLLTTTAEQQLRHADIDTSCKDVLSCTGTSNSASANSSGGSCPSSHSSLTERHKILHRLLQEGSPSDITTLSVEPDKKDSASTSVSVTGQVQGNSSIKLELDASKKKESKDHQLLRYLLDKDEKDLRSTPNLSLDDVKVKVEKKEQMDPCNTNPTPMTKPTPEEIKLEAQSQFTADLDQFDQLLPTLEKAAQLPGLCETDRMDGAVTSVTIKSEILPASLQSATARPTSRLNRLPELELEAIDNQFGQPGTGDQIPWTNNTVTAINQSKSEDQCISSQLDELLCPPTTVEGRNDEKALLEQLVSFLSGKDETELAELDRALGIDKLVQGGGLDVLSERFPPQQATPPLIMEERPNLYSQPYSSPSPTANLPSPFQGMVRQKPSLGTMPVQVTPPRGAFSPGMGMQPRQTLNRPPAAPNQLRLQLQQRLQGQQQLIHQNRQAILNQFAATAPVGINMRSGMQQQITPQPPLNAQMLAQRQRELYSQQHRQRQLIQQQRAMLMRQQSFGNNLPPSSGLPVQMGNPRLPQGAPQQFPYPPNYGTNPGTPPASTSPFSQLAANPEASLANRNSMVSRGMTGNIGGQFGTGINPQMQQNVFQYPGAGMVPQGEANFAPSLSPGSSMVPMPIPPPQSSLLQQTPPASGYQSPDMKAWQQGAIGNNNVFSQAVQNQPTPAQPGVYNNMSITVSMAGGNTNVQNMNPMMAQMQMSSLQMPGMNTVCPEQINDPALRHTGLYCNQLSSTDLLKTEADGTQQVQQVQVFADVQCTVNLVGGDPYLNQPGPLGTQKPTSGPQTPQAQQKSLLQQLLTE
Sequence of Peroxisome proliferator-activated receptor gamma/Nuclear receptor coactivator 3 (P37231 whole entry): as the sequence (P37231 whole entry) above
Sequence of Peroxisome proliferator-activated receptor gamma/Nuclear receptor coactivator 3 (Q9Y6Q9 whole entry, further chain): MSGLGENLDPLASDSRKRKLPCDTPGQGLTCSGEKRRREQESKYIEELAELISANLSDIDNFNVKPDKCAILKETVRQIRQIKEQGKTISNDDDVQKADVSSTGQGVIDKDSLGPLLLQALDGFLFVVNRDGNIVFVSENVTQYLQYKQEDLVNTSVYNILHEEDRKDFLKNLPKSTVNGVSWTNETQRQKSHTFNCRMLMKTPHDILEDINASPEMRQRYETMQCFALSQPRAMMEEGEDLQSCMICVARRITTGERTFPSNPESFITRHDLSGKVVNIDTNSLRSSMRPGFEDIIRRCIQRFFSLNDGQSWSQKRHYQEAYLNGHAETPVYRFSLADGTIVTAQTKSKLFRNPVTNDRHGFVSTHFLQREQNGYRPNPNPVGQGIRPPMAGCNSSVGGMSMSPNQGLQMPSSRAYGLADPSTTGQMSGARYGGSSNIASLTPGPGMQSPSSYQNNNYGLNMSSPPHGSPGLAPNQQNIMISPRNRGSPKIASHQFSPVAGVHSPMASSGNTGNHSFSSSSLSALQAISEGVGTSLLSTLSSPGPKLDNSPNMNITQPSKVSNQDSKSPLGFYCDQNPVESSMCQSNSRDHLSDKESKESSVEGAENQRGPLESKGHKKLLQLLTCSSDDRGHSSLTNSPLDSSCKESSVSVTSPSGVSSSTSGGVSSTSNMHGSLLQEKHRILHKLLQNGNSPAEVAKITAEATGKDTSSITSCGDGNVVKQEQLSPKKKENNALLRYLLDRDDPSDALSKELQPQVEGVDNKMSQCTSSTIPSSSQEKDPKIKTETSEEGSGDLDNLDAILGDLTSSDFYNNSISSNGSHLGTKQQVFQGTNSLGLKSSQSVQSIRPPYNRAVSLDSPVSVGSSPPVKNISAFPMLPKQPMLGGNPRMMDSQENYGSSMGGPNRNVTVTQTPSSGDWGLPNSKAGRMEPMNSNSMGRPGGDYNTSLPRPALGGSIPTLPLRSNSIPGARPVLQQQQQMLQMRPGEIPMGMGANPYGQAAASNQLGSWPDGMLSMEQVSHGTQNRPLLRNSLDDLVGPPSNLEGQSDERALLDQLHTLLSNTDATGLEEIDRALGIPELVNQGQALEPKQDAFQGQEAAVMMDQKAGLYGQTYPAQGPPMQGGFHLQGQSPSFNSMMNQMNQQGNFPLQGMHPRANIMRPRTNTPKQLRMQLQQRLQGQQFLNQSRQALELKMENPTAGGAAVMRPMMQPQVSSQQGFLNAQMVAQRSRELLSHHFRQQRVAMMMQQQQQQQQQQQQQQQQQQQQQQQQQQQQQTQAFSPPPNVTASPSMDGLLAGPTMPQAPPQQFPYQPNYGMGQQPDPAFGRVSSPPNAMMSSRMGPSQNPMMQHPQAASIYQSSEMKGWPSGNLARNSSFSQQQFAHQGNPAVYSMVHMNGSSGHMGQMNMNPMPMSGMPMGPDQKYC
Sequence of Genome polyprotein (P29990 2492-3391 limits assumed): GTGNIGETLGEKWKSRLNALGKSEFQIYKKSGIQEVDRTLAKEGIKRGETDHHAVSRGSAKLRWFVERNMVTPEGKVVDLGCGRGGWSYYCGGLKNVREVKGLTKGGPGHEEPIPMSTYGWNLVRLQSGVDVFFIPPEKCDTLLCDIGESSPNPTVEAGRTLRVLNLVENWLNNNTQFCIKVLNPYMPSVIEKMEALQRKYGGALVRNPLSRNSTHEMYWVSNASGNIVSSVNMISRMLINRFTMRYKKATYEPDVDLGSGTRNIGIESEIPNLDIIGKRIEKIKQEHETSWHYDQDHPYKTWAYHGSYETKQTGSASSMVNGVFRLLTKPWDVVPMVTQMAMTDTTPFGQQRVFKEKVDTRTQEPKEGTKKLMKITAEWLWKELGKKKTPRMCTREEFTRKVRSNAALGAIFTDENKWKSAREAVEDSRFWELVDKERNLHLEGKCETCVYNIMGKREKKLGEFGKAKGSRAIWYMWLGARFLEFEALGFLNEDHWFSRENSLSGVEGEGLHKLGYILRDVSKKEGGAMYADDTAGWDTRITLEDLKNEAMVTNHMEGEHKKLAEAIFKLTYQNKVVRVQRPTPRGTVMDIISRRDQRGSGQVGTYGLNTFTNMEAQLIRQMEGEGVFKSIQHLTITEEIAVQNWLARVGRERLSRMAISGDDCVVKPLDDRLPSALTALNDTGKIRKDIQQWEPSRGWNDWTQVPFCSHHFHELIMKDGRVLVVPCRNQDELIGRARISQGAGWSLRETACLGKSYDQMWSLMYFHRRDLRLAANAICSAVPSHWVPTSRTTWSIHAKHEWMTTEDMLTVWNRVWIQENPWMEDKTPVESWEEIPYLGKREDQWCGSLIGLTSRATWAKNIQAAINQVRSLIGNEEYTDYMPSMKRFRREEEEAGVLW

As for `O=C(COc1ccc(F)cc1)NNC(=O)c1cc2ccccc2oc1=O`, the IC50 in “cells [1]” was > 29.9 µM (inactive). Besides, in “cells [2]”, the EC50 is > 29.9 µM (inactive).

In the case of `CC(=C1C(=O)c2ccccc2C1=O)N1CCc2ccccc2C1`, the IC50 in “cells [1]” was > 29.9 µM (inactive). In “cells [2]”, the EC50 is > 29.9 µM (inactive).

In the case of `CCCCNS(=O)(=O)c1cc(-c2nn(C)c(=O)c3ccccc23)ccc1C`, the AC50 on Caspase-6 was 21.3 µM (active).

With `Cc1ccc(CSc2nnc3c(n2)OC2(Nc4ccccc4-3)C(=O)Nc3ccc(F)cc32)cc1` (centres undefined), the IC50 at Genome polyprotein is 25 µM (active).

For `O=C(CSc1ccc(-c2ccccn2)nn1)c1ccc(F)cc1`, in assay [3], the IC50 is reported as > 50 µM (not active).

Consider `CC1CCN(S(=O)(=O)c2ccc3c4c2CC(=O)N4CC(C)S3)CC1` (centres undefined), for which the EC50 in “cells [4]” and in “cells [5]” was > 350 µM (not active) throughout. For the same compound, the IC50 in assay [6] is 3.64 µM (active).

In the case of `O=C(Nc1ccccc1F)c1coc(=O)c(Br)c1`, the EC50 in assay [7] and in [8] was > 300 µM (not active) throughout. Also, on Caspase-6, the concentration at half-maximal activity (AC50) is 23.8 µM (active).

As for `COc1ccc(C(=O)C2=C(O)C(=O)N(c3cc(C)on3)C2c2ccccc2OC)cc1` (centres undefined), the EC50 was 22.9 µM (inactive) in assay [9], > 79.4 µM (not active) in assay [10] and 18.2 µM (not active) in assay [11].

Consider `N=C1/C(=C/c2ccc(Br)o2)C(=O)N=C2SC(CC(=O)N3CCCC3)=NN12`, for which the IC50 in assay [12] is > 80 µM (inactive); on Large T antigen, 58.3 µM (active).

Consider `Cn1c(S)nnc1-c1sc2cc(C(F)(F)F)cnc2c1-c1ccccc1`, for which the concentration for a half-maximal effect (EC50) in [9] was 3.6 µM (active); in assay [10], 16.3 µM (not active); in assay [11], 5.17 µM (active).

Regarding `O=C(Cn1cnc2c(nnn2-c2cccc(Cl)c2)c1=O)NCc1ccccc1`, the IC50 in assay [12] was 8.16 µM (active).

For the compound `C[C@H](O)[C@@H]1C(=O)N2CCc3c([nH]c4ccccc34)[C@@H]2C[C@@H]1N(C)C(=O)Nc1cccc2ccccc12`, the AC50 on Caspase-6 is 35.9 µM (active).

Consider `C/C(=N\Nc1ccc(Cl)c(C(=O)O)c1)c1ccc[nH]1`, for which, in assay [12], the IC50 is 4.28 µM (active). The EC50 in [7] is on record as > 150 µM (not active); in [8], > 300 µM (not active).

Consider `O=C(CSc1nc2sc3c(c2c(=O)n1-c1ccccc1)CCCC3)N/N=C/c1ccc(C(=O)O)cc1`, for which the IC50 in assay [12] is 25.9 µM (active).

In the case of `Oc1ccc(/C=N/CC2COc3ccccc3O2)cc1` (centres undefined), the IC50 in “cells [1]” is > 29.9 µM (inactive). Besides, the EC50 in the assay “cells [2]” is > 29.9 µM (inactive).

As a reminder, the IC50 is the concentration that gives 50% inhibition. The term EC50 denotes the concentration at which the effect is half-maximal. As a reminder, the AC50 is the midpoint of the concentration-response curve, whichever way the signal moves.

The record behind these values is ChEMBL document CHEMBL1201862, “PubChem BioAssay data set” (2004).
